Reference: patent US20100143459A1, “PHARMACEUTICAL DOSAGE FORM FOR ORAL ADMINISTRATION OF TYROSINE KINASE INHIBITOR” (ABBOTT GMBH & CO. KG, priority 2006, published 2010)

Test: Pharmacokinetics in humans after a 10 mg tablet under fasting conditions
Assay type: in vivo
Details: human patients, single 10 mg oral dose, mean±SD
Method: Tablets containing a 10 mg dose of ABT-869 ethanolate, as prepared above, were administered to 11 patients in the morning with 240 mL of water under fasting conditions (defined as no food or drink consumption except water and concomitant medications for 2 hours prior to dosing). Following dosing, 4-mL blood samples were collected for pharmacokinetic analyses at the following times: 0 (pre-dose), 1, 3, 4, 6, 8, 24 and 48 hours. These samples were analyzed for ABT-869 plasma concentrations using Liquid Chromatography/Tandem Mass Spectrometry (LCMS/MS). The lower limit of quantification (LLOQ) for the assay was 1.1 ng/mL.
Pharmacokinetic parameters including the maximum observed plasma concentration (Cmax), time to Cmax (Tmax), the area under the plasma concentration-time curve (AUC) from 0 to time of the last measurable concentration (AUC0-48) and AUC from 0 to infinite time (AUCoo) were determined by non-compartmental methods using WinNonlin Professional version 5.2 software.

Cc1ccc(F)c(NC(=O)Nc2ccc(-c3cccc4[nH]nc(N)c34)cc2)c1 [ABT 869, N-[4-(3-amino-1H-indazol-4-yl)phenyl]-N′-(2-fluoro-5-methylphenyl)-urea]
AUC0-48 per mg of dose: about 0.40±0.10 μg·h/mL/mg
AUCoo per mg of dose: about 0.55±0.17 μg·h/mL/mg
Cmax per mg of dose: about 0.023±0.004 μg/mL/mg
Tmax (plasma): ~2.8 h
